Values quoted from earlier work as cited in patent US11930809B2, “Preservation of biomaterial properties and methods of storing” (LIFELINE SCIENTIFIC, INC., priority 2012, dated 2024).

Key:
[1] = test system: chondrocytes in articular cartilage; details: conventional cryopreservation by freezing in a solution that includes DMSO
[2] = early Phase clinical studies

C[S+](C)[O-] [DMSO, dimethyl sulfoxide]
death of chondrocytes in articular cartilage [1]: 80-100%

COC(=O)C1=CO[C@@H](O)[C@@H]2C(CO)=CC[C@H]12 [genipin]
expression of TIMP-1 (TIMP-1): upregulate the expression of TIMP-1

PCK3145: synthetic peptide corresponding to amino acids 31-45 of prostate secretory protein 94 (EWQTDNCETCTCYET; UniProt P08118 51-65, looked up, fragment)
tolerability [2]: well tolerated
